Assay results: ChEMBL document CHEMBL1140936, “Topological polar surface area defines substrate transport by multidrug resistance associated protein 1 (MRP1/ABCC1)” (J Med Chem, 2009)

Tests used:
[1] = target: T1, Multidrug resistance-associated protein 1 (Homo sapiens, UniProt P33527); experiment: Activity of MRP1
[2] = target: T1, Multidrug resistance-associated protein 1; experiment: Activity at MRP1 in human HeLa T5 cells assessed as ATP-dependent drug transport at 50 nM measured per mg of protein; assay type: cell-based; settings: 0.05 µM

T1 sequence (P33527 whole entry): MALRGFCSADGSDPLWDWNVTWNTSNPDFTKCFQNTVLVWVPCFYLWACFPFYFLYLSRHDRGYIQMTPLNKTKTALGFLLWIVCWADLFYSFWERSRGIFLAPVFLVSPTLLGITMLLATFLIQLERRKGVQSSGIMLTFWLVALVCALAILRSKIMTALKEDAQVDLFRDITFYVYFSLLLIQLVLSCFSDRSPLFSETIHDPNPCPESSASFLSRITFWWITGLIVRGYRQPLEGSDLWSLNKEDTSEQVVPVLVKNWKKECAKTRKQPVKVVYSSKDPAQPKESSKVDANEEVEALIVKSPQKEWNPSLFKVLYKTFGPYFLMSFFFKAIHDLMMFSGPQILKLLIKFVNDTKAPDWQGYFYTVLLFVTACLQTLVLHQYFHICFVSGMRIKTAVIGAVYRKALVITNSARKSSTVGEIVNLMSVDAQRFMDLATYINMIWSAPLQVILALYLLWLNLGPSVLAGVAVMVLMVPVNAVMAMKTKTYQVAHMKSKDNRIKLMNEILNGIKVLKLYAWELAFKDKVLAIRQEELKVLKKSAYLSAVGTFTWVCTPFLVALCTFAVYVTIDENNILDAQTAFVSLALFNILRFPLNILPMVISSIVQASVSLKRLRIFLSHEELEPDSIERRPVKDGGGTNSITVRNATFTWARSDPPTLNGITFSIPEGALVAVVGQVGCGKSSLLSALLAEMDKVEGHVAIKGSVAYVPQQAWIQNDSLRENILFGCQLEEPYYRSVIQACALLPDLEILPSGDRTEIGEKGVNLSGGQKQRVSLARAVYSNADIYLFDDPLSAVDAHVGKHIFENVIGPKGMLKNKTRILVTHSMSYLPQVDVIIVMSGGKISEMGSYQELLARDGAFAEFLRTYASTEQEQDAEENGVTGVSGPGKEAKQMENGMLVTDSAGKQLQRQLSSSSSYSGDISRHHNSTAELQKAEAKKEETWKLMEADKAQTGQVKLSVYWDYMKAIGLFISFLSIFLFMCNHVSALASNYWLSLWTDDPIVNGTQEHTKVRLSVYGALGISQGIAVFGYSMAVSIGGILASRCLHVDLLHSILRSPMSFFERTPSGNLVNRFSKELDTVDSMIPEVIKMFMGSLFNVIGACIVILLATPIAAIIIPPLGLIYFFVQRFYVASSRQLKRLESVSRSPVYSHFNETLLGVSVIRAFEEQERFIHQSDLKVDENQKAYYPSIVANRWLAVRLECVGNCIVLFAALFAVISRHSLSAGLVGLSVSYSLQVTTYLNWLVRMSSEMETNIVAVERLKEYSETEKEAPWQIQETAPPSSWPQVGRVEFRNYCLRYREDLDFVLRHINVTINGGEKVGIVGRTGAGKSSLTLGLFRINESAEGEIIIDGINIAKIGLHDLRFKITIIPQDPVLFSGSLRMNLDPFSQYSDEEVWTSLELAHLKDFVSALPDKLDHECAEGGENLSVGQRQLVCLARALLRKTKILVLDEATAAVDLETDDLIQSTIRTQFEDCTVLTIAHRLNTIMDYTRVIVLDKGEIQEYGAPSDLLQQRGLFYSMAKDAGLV

| Structure (SMILES) | Km [1] [µM] | Activity [2] [pmol/min] |
| --- | --- | --- |
| Cc1ccc(N(CC(=O)O)CC(=O)O)c(OCCOc2cc(-c3c4cc(Cl)c(=O)cc-4oc4cc(O)c(Cl)cc34)ccc2N(CC(=O)O)CC(=O)O)c1 | 12 | – |
| CCCCC/C=C\C\C=C/C=C/C=C/[C@@H](SC[C@H](N)C(=O)O)[C@@H](O)CCCC(=O)O [LEUKOTRIEN E4] | – | 8 |
| CCCCC/C=C\C\C=C/C=C/C=C/[C@@H](SC[C@H](N)C(=O)NCC(=O)O)[C@@H](O)CCCC(=O)O [LEUKOTRIENE D4] | – | 15 |
